# Results as given in doi:10.1101/430959v1, “The chemistry and pharmacology of putative synthetic cannabinoid receptor agonist (SCRA) new psychoactive substances (NPS) 5F-PY-PICA, 5F-PY-PINACA, and their analogues” (biorxiv, 2018).
# Where two headings read alike, the source gives them in different places.
# How the values were obtained:
# [1] = target: T1, HA-hCB2 (Homo sapiens, UniProt P34972); assay: [3H]CP55, […] competition, membranes; format: binding
# T1 construct: gene CNR2
# [2] = target: T2, human CB2 (AtT20-CB2) (Homo sapiens, UniProt P34972); assay: cell-based; settings: for Emax: read-out: hCB2 Max (% CP 55,940); for EC50: read-out: hCB2 pEC50 (converted)
# T2 construct: gene CNR2; full-length, stably transfected in mouse AtT20 cells
# T2 sequence (P34972 whole entry): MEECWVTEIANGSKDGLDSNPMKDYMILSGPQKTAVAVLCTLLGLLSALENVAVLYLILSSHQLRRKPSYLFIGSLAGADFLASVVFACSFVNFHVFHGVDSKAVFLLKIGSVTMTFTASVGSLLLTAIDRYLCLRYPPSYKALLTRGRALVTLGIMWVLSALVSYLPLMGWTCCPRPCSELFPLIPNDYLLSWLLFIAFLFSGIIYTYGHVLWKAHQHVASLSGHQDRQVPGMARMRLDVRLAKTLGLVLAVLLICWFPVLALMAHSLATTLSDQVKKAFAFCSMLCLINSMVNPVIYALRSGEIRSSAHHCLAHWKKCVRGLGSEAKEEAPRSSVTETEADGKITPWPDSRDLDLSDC
# Procedure: (§1) Mouse AtT20 neuroblastoma cells stably transfected with human CB1 or human CB2 have been previously described.[43] and were cultured in Dulbecco’s modified Eagle’s medium (DMEM) containing 10% fetal bovine serum (FBS), 100 U penicillin/streptomycin, and 80 μg/mL hygromycin (InvivoGen, San Diego, CA, USA). Cells were passaged at 80% confluency as required. Cells for assays were grown in 75 cm2 flasks and used at 90% confluence. The day before the assay cells were detached from the flask with trypsin/EDTA (Sigma) and resuspended in 10 mL of Leibovitz’s L-15 media supplemented with 1% FBS, 100 U penicillin/streptomycin and 15 mM glucose. The cells were plated in volume of 90 μL in black walled, clear bottomed 96-well microplates (Corning) which had been precoated with poly-L-lysine (Sigma, Australia). Cells were incubated overnight at 37 °C in ambient CO2. Membrane potential was measured using a FLIPR Membrane Potential Assay kit (blue) from Molecular Devices, as described previously.[46] The dye was reconstituted with assay buffer of composition (mM): NaCl 145, HEPES 22, Na2HPO4 0.338, NaHCO3 4.17, KH2PO4 0.441, MgSO4 0.407, MgCl2 0.493, CaCl2 1.26, glucose 5.56 (pH 7.4, osmolarity 315 ± 5). Prior to the assay, cells were loaded with 90 μL/well of the dye solution without removal of the L-15, giving an initial assay volume of 180 μL/well. Plates were then incubated at 37 °C at ambient CO2 for 45 min. Fluorescence was measured using a FlexStation 3 (Molecular Devices) microplate reader with cells excited at a wavelength of 530 nm and emission measured at 565 nm. Baseline readings were taken every 2 s for at least 2 min, at which time either drug or vehicle was added in a volume of 20 μL. The background fluorescence of cells without dye or dye without cells was negligible. Changes in fluorescence were expressed as a percentage of baseline fluorescence after subtraction of the changes produced by vehicle addition. The final concentration of DMSO was 0.1%. Data were analyzed with PRISM (GraphPad Software Inc., San Diego, CA), using four-parameter nonlinear regression to fit concentration-response curves. In all plates, a maximally effective concentration of CP 55,940 was added to allow for normalization between assays.
# [3] = target: T3, HA-hCB1 (Homo sapiens, UniProt P21554); assay: [3H]SR141716A competition, membranes; format: binding
# T3 construct: gene CNR1
# T3 sequence (P21554 whole entry): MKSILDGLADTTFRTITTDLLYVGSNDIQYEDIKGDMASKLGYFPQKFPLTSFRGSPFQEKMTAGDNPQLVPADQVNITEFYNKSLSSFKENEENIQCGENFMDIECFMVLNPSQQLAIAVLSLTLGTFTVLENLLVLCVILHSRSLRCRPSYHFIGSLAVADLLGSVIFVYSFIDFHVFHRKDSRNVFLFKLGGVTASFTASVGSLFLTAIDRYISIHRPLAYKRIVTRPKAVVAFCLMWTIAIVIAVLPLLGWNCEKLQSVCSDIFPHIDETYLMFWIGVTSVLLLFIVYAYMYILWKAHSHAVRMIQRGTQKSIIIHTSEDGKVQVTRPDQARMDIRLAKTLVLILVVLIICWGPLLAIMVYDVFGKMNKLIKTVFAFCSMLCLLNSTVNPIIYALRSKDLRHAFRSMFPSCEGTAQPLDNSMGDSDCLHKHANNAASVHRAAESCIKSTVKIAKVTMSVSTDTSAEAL
# [4] = target: T2, human CB2 (AtT20-CB2); assay: FLIPR membrane potential assay, AtT20 cells; format: cell-based
# Source text: FLIPR membrane potential assay, AtT20 cells on human CB2 (AtT20-CB2)
# [5] = target: T4, human CB1 (AtT20-CB1) (Homo sapiens, UniProt P21554); assay: cell-based; settings: read-out: % activation
# T4 construct: gene CNR1; full-length, stably transfected in mouse AtT20 cells
# T4 sequence (P21554 whole entry): as above
# Procedure: as §1
# [6] = target: T1, HA-hCB2; assay: biochemical; set-up: species or system HEK 293; settings: read-out: hCB2 pKi (converted)
# T1 sequence (P34972 whole entry): as the sequence (P34972 whole entry) above
SMILES,Ki [1],Emax [2],Ki [3],EC50 [4],Ki ([1]; read-out: Ki),Ki ([3]; read-out: pKi (converted)),EC50 ([4]; read-out: EC50),activity at 10 µM [5],activity at 10 µM ([2]; read-out: % activation),EC50 [2],Ki [6]
"O=C(c1cn(CCCCCF)c2ccccc12)N1CCCC1 [compound 5, (1-(5-Fluoropentyl)-1H-indol-3-yl)(pyrrolidin-1-yl)methanone]",1.74 µM,50 ± 3%,> 10 µM,0.338 µM,,,,,,,
"O=C(c1cn(CCCCCF)c2ccccc12)N1CCCCC1 [compound 7, (1-(5-Fluoropentyl)-1H-indol-3-yl)(piperidin-1-yl)methanone]",,64 ± 3%,,,0.363 µM,> 10 µM,0.0363 µM,,,,
"O=C(c1cn(CCCCCF)c2ccccc12)N1CCCCCC1 [compound 8, Azepan-1-yl(1-(5-fluoropentyl)-1H-indol-3-yl)methanone]",,72 ± 3%,,,0.102 µM,> 10 µM,0.029 µM,,,,
"CCN(CC)C(=O)c1cn(CCCCCF)c2ccccc12 [compound 9, 1-(5-Fluoropentyl)-N,N-diethyl-1H-indole-3-carboxamide]",,53 ± 4%,,,1.02 µM,> 10 µM,0.137 µM,0%,,,
"CN(C)C(=O)c1cn(CCCCCF)c2ccccc12 [compound 10, 1-(5-Fluoropentyl)-N,N-dimethyl-1H-indole-3-carboxamide]",,,,,> 10 µM,> 10 µM,,9 ± 4%,11 ± 2%,,
"CCCCn1cc(C(=O)N2CCCC2)c2ccccc21 [compound 11, (1-Butyl-1H-indol-3-yl)(pyrrolidin-1-yl)methanone]",,63 ± 9%,,,> 10 µM,> 10 µM,,16 ± 9%,,0.468 µM,
"CCCCCn1cc(C(=O)N2CCCC2)c2ccccc21 [compound 12, (1-Pentyl-1H-indol-3-yl)(pyrrolidin-1-yl)methanone]",,54 ± 7%,,,,> 10 µM,,1 ± 3%,,0.234 µM,3.24 µM
"O=C(c1cn(Cc2ccc(F)cc2)c2ccccc12)N1CCCC1 [compound 13, (1-(4-Fluorobenzyl)-1H-indol-3-yl)(pyrrolidin-1-yl)methanone]",,38 ± 13%,,,,> 10 µM,,12 ± 2%,,0.363 µM,3.55 µM
"O=C(c1cn(CC2CCCCC2)c2ccccc12)N1CCCC1 [compound 14, (1-(Cyclohexylmethyl)-1H-indol-3-yl)(pyrrolidin-1-yl)methanone]",,38 ± 3%,,,,> 10 µM,,,,0.135 µM,1.07 µM
